In US20040229791A1, “Compositions and methods of modulating TGF-beta activity by fatty acids” (priority 2002, published 2004):

Molecular target: T1, TGF-β1-α2M* complex (Homo sapiens, UniProt P01023)
T1 construct: was purified from pooled citrate-treate human plasma; from tissue; host or cells: pooled citrate-treated human plasma
T1 sequence (P01023 24-1474): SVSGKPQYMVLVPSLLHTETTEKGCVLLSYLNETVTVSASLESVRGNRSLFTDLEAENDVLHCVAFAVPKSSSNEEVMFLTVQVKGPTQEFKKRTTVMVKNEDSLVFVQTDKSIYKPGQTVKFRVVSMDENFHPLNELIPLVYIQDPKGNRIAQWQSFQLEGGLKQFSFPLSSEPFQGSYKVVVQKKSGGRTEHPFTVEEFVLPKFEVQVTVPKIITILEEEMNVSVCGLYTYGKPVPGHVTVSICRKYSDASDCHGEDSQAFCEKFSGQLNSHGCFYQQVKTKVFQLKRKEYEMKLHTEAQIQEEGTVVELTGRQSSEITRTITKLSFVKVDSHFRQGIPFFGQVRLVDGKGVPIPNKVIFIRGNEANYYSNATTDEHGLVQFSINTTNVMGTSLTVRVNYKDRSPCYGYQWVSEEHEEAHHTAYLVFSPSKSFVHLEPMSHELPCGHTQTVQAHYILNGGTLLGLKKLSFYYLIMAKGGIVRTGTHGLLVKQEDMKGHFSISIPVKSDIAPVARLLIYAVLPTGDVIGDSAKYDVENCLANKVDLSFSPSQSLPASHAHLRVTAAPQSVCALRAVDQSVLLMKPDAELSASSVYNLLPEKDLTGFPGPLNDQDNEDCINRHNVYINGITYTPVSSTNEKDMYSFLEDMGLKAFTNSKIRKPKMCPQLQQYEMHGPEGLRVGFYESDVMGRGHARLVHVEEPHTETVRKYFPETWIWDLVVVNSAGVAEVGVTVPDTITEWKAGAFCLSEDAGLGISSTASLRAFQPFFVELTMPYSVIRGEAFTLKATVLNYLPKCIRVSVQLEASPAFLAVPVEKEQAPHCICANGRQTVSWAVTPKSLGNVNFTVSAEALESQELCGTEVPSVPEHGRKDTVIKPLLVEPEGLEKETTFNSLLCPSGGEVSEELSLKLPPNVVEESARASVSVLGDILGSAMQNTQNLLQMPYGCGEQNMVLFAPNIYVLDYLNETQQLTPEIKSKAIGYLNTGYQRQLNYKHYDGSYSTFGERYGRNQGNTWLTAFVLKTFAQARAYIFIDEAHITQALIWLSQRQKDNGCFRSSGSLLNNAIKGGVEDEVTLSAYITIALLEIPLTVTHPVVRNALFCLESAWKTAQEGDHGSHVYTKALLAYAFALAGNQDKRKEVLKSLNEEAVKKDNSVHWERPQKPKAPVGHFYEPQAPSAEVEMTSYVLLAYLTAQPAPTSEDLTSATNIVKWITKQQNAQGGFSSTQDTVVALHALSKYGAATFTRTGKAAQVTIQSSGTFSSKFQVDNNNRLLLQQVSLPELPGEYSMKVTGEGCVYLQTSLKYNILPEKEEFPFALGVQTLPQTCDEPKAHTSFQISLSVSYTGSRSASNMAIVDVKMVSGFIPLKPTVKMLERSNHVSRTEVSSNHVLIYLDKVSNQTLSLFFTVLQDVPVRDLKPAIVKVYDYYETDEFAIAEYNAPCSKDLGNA
Experiment: Inhibition of 125I-TGF-β1 and α2M* complex formation (5% non-denaturing PAGE, autoradiography)
Format: binding
Settings: ~1 nM 125I-TGF-β1, 10 μg α2M* in 0.05 ml, 30 min room temperature, non-denaturing PAGE; read-out: IC50 for inhibiting complex formation between TGF-β1 and α2M*
Method: Saturated and unsaturated fatty acids are present in plasma and tissues (25,26). The effects of various concentrations of saturated fatty acids on the formation of complexes between ^125I-TGF ? β1 and ? 2M* were examined. ^125I-TGF- ? 1 (1 nM) was incubated μg/ml) in the presence of various concentrations of n-caprylic acid ([…]), lauric acid (12 carbon atoms), myristic acid (14 carbon atoms), palmitic acid (16 carbon atoms) and stearic acid (18 carbon atoms). After 30 min at room temperature, the reaction mixture was analyzed by 5% non-denaturing PAGE and autoradiography, a standard method form determining complex formation between TGF-β and α2M* (12). […] At 100 μM, it inhibited 20% of the complex formation between TGF ? β1 and α2M*. Esterification consistently abolished the inhibitory activities of the fatty acids.
Complex formation of ^125I-TGF-β and ? 2M*—The reaction mixture contained 10 μg of . α2M*, ˜1 nM of ^125I-TGF- ? 1, ^125I-TGF ? β2 or ^125I-TGF ? acids (dissolved in 100% ethanol) in 0.05 ml of 50 mM HEPES-NaOH buffer, pH 7.4. The final concentration of ethanol in the reaction mixture was 0.5%. These fatty acids and fatty acid derivatives were soluble under the experimental conditions. After 30 min at room temperature, the complex formation of ^125I-TGF- ? and. α2M* was determined by 5% non-denaturing polyacrylamide gel electrophoresis (PAGE) or by 7.5% SDS-PAGE following cross-linking by 0.6 mM DSS. After electrophoresis, the gel was stained with Coomassie blue and analyzed by autoradiography. The ^125I-TGF- ? - ? 2M* complex which co-migrated with free ? 2M* was quantified using a PhosphoImager (Fuji).

- IC50: 26 ± 3.1 µM
Structure (SMILES): CC/C=C\C/C=C\C/C=C\CCCCCCCC(=O)O [linolenic acid]
